From patent US6953671B2, “Plasma phospholipid transfer protein (PLTP) deficiency represents an anti-atherogenic state and PLTP inhibitor has anti-atherosclerosis action” (The Trustees of Columbia University in the City of New York, priority 2001, dated 2005)
Where a SMILES comes first, the peptide text is derived from it. [ ]: non-standard residue; d: D form. Nle = CCCC[C@H](N)C(=O)O

What was measured:
[1] = test system: hepatocytes from apoBTg/PLTP0 and apoBTg mice; test: apoB in cell lysates of radiolabeled primary hepatocytes with or without ALLN; assay type: cell-based, mouse; conditions: 40 μg/ml ALLN, 30 min labeling; especially PLTP deficient cells
Protocol: (§1) Primary hepatocyte culture, immunoprecipitation and analysis of apoB or albumin from culture medium or cel lysate were performed as described previously^18. A, pulse change experiment, apoB in the cell media; B, pulse chase experiment, apoB in the cell lysate; C, determination of apoB secretion rate in the presence and absence of the proteoscflal inhibitor ALLN. Hepatocytes from apoBTg/PLTP0 and apoBTg mice were radiolabeled continuously with ^35Smethionine/cystein with or without 40 μg/ml ALLN fcr 30 mm. Cells ware lysed and lysates immunoprecipitated with apoB antibody. Samples were separated on SDS PAGE. D, determination of apoB secretion rate in the presence and absence of heparin. Hepatocytes from apoBTG/PLTP0 and apoBTg mice were radiolabeled continuously with ^35Smethionine/cystein with or without 10 mg/ml heparin for 3 hr. […]
(§2) Immunoprecipitation and analysis of apoB from culture medium or cell lysate: The primary hepatocytes were allowed to attach to dishes for 90 minutes. […] At each chase time point (30 minutes, 1 hour and 2 hours), medium apoB and cell lysate apoB were immunoprecipitated by apoB antibody together with protein A/G agarose, the precipitates were size-fractionated on a 4% SDS PAGE gel, the gel was dried, and the incorporation of ^35S into apoB48 and apoB100 was assessed with a Fuji Bio-Imaging Analyzer (Fuji Medical Systems, Stamford, Conn.).

[2] = target: plasma phospholipid transfer protein (PLTP) (UniProt P55065); test: PLTP inhibition assay (radiolabeled phospholipid transfer from vesicles to HDL by plasma); assay type: biochemical; conditions: 3 μl plasma, 0-50 μM compound, 400 μl assay
Protocol: PLTP activity assays: Egg phosphatidylcholine (10 μmol) containing 10 nmol of [3H]PC (L-a-dipalmitoyl-[2-palmitoyl-9,10-3H(N)]-phosphatidylcholine) was dried under a stream of nitrogen, resuspended in 1 ml of a solution of 10 mM Tris, 150 mM NaCl, 1 mM ethylenediaminetetraacetic acid (EDTA) (pH 7.4), and then probe-sonicated and centrifuged. Transfer of radiolabeled phospholipid was measured by incubating 3 μl of plasma with radiolabeled phospholipid vesicles (125 nmol PC) and HDL (250 μg protein) in a final volume of 400 μl at 37° C. for 1 hour.
The following compound, which is a known cholesteryl ester transfer protein (CETP) inhibitor (compound No. 3 in Okamoto et al.^38) was dissolved in dimethlysulfonyl oxide (DMSO) (stock solution 2 mM): [drawing 1] A final volume of 400 μl assay system was prepared containing phosphatidylcholine, HDL, 3 μl of plasma, and 0-50 μM of the compound. Vesicles were subsequently precipitated by the addition of 300 μl of a solution of 500 mM NaCl, 215 mM MnCl2, 445 U/ml heparin, and the radioactivity of a 500-μl aliquot of the supernatant was measured.

[3] = test system: hepatocytes from apoBTg/PLTP0 and apoBTg mice; test: apoB/BLp accumulation in media of primary hepatocytes with or without heparin; assay type: cell-based, mouse; conditions: 10 mg/ml heparin, 3 hr
Protocol: as §1, §2

CCCC[C@@H](C=O)NC(=O)[C@H](CC(C)C)NC(=O)[C@H](CC(C)C)NC(C)=O [ALLN, N-acetyl-leu-leu-norleu-AL] (Ac-Leu-Leu-[Nle]-aldehyde)
levels of apoB within cells [1]: increased levels of apoB within cells

CC(C)(C)C(=O)Nc1ccccc1SSc1ccccc1NC(=O)C(C)(C)C [compound #3]
Ki [2]: 15 µM

heparin
accumulation of BLp in media ([3]; PLTP deficient hepatocytes): failed to increase BLp accumulation | accumulation of BLp in media ([3]; hepatocytes from apoB transgenic mice): increased the accumulation of BLp in media
